Source: patent US20240226228A1, “ANTIMICROBIAL PEPTOID HAVING IMPROVED SELECTIVITY AND ANTIMICROBIAL COMPOSITION COMPRISING SAME” (priority 2021, published 2024)
In brackets after ≈: the same amount, converted by molar mass. Where two headings read alike, the source gives them in different places. Where a SMILES comes first, the peptide text is derived from it. [ ]: non-standard residue; d: D form. Gly(N(CH2)2(3-indolyl)) = O=C(O)CNCCc1c[nH]c2ccccc12; Gly(N-CH2CH2-imidazol-4-yl) = O=C(O)CNCCc1c[nH]cn1; Nspe = C[C@H](NCC(=O)O)c1ccccc1; Nphe = O=C(O)CNCc1ccccc1; Nlys = NCCCCNCC(=O)O

Tests used:
red blood cells = assay: Hemolysis assay; assay type: cell-based, Sprague-Dawley mouse
In short: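 Peptoid is mixed with 10% (v/v) PBS-washed erythrocytes (male Sprague-Dawley […], 13 weeks) and held 1 h at 37 °C. Hemolysis is calculated from 540 nm absorbance of the supernatant, with PBS as 0% and Triton X-100 as 100%.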

E. coli ATCC25922 = test system: E. coli ATCC25922
In short: (§1)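 Cation-adjusted MHB2 cultures (18 h, subcultured 4 h) adjusted to 2×10^5–5×10^5 CFU/mL in medium with 0.02% BSA and 0.001% acetic acid.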

S. aureus ATCC 25923 = test system: S. aureus ATCC 25923
In short: as §1

[1] = Tables 11-13, 24 hours at 37° C., maximum concentration 25 μM
[2] = Table 18, TFA salt vs counter ion-substituted (HCl, AcOH) peptoids

| SMILES | HD10 (red blood cells) | HD50 (red blood cells) | Hmax (100 μM) (red blood cells) | MIC E. coli ATCC25922 (E. coli ATCC25922; ATCC25922) [µM] | MIC S. aureus ATCC 25923 (S. aureus ATCC 25923; ATCC 25923) [µM] | HC10 (red blood cells) | HC50 (red blood cells) | MIC E. coli ATCC25922 (E. coli ATCC25922; [1]) [µM] | MIC S. aureus ATCC 25923 (S. aureus ATCC 25923; [1]) [µM] | MIC E. coli ATCC25922 (E. coli ATCC25922; [2]) [µM] | MIC S. aureus ATCC 25923 (S. aureus ATCC 25923; [2]) [µM] |
| --- | --- | --- | --- | --- | --- | --- | --- | --- | --- | --- | --- |
| C[C@@H](c1ccccc1)N(CC(=O)N(CCCCN)CC(=O)N(CCc1c[nH]c2ccccc12)CC(=O)N(CCc1c[nH]c2ccccc12)CC(N)=O)C(=O)CN(CCCCN)C(=O)CN(CCc1c[nH]cn1)C(=O)CN(C(=O)CN(C(=O)CN(CCCCN)C(=O)CN(C(=O)CN(C(=O)CNCCCCN)[C@@H](C)c1ccccc1)[C@@H](C)c1ccccc1)[C@@H](C)c1ccccc1)[C@@H](C)c1ccccc1 [Peptoid 79] (H-[Nlys][Nspe][Nspe][Nlys][Nspe][Nspe][Gly(N-CH2CH2-imidazol-4-yl)][Nlys][Nspe][Nlys][Gly(N(CH2)2(3-indolyl))][Gly(N(CH2)2(3-indolyl))]-NH2) | >100.0/>100.0 | >100.0/>100.0 | 8.5 ± 0.6 | 6.3 (≈ 11.9 µg/mL) | 6.3 (≈ 11.9 µg/mL) | – | – | – | – | – | – |
| C[C@@H](c1ccccc1)N(CC(N)=O)C(=O)CN(C(=O)CN(CCCCN)C(=O)CN(C(=O)CN(C(=O)CN(CCCCN)C(=O)CN(CCc1c[nH]c2ccccc12)C(=O)CN(C(=O)CN(CCCCN)C(=O)CN(C(=O)CN(CCCCN)C(=O)CNCCCCN)[C@@H](C)c1ccccc1)[C@@H](C)c1ccccc1)[C@@H](C)c1ccccc1)[C@@H](C)c1ccccc1)[C@@H](C)c1ccccc1 [Peptoid 27] | – | – | 5.9 ± 0.2% | – | – | >100/>100 μM | >100/>100 μM | 25 (≈ 45.6 µg/mL) | 3.1 (≈ 5.66 µg/mL) | – | – |
| NCCCCNCC(=O)N(CCc1c[nH]c2ccccc12)CC(=O)N(CCc1c[nH]c2ccccc12)CC(=O)N(CCCCN)CC(=O)N(CCc1c[nH]c2ccccc12)CC(=O)N(CCc1c[nH]c2ccccc12)CC(=O)N(CCCCN)CC(=O)N(CCc1c[nH]c2ccccc12)CC(=O)N(CCc1c[nH]c2ccccc12)CC(=O)N(CCCCN)CC(=O)N(CCc1c[nH]c2ccccc12)CC(=O)N(CCc1c[nH]c2ccccc12)CC(N)=O [Peptoid 23] (H-[Nlys][Gly(N(CH2)2(3-indolyl))][Gly(N(CH2)2(3-indolyl))][Nlys][Gly(N(CH2)2(3-indolyl))][Gly(N(CH2)2(3-indolyl))][Nlys][Gly(N(CH2)2(3-indolyl))][Gly(N(CH2)2(3-indolyl))][Nlys][Gly(N(CH2)2(3-indolyl))][Gly(N(CH2)2(3-indolyl))]-NH2) | – | – | 72.2 ± 0.3% | – | – | 17.1 µM | 45.2 µM | 25 (≈ 53.3 µg/mL) | 1.6 (≈ 3.41 µg/mL) | – | – |
| C[C@@H](c1ccccc1)N(CC(N)=O)C(=O)CN(C(=O)CN(CCCCN)C(=O)CN(C(=O)CN(C(=O)CN(CCCCN)C(=O)CN(C(=O)CN(C(=O)CN(CCCCN)C(=O)CN(CCc1c[nH]c2ccccc12)C(=O)CN(CCc1c[nH]c2ccccc12)C(=O)CNCCCCN)[C@@H](C)c1ccccc1)[C@@H](C)c1ccccc1)[C@@H](C)c1ccccc1)[C@@H](C)c1ccccc1)[C@@H](C)c1ccccc1 [Peptoid 14-2] | – | – | 100.7 ± 17.2% | – | – | 14.9 µM | 51.8 µM | – | – | 3.1 | 1.6 |
| C[C@H](NCC(=O)N(CCCCN)CC(=O)N(CC(=O)N(CC(=O)N(CCCCN)CC(=O)N(CC(=O)N(CC(=O)N(CCCCN)CC(=O)N(CC(=O)N(CC(=O)N(CCCCN)CC(=O)N(CC(N)=O)[C@@H](C)c1ccccc1)[C@@H](C)c1ccccc1)[C@@H](C)c1ccccc1)[C@@H](C)c1ccccc1)[C@@H](C)c1ccccc1)[C@@H](C)c1ccccc1)[C@@H](C)c1ccccc1)c1ccccc1 [Peptoid 48] (H-[Nspe][Nlys][Nspe][Nspe][Nlys][Nspe][Nspe][Nlys][Nspe][Nspe][Nlys][Nspe]-NH2) | – | – | 79.9 ± 3.6% | – | – | 25.7 µM | 48.4 µM | 12.5 (≈ 22.7 µg/mL) | 3.1 (≈ 5.64 µg/mL) | – | – |
| C[C@@H](c1ccccc1)N(CC(N)=O)C(=O)CN(C(=O)CN(CCCCN)C(=O)CN(C(=O)CN(C(=O)CN(CCCCN)C(=O)CN(CCc1c[nH]c2ccccc12)C(=O)CN(CCCCN)C(=O)CN(CCCCN)C(=O)CN(C(=O)CN(C(=O)CNCCCCN)[C@@H](C)c1ccccc1)[C@@H](C)c1ccccc1)[C@@H](C)c1ccccc1)[C@@H](C)c1ccccc1)[C@@H](C)c1ccccc1 [Peptoid 26] | – | – | 0.7 ± 0.1% | – | – | >100/>100 μM | >100/>100 μM | >25 | 6.3 (≈ 11.5 µg/mL) | – | – |
| C[C@@H](c1ccccc1)N(CC(N)=O)C(=O)CN(C(=O)CN(CCCCN)C(=O)CN(C(=O)CN(CCc1c[nH]c2ccccc12)C(=O)CN(CCCCN)C(=O)CN(CCc1c[nH]c2ccccc12)C(=O)CN(C(=O)CN(CCCCN)C(=O)CN(C(=O)CN(C(=O)CNCCCCN)[C@@H](C)c1ccccc1)[C@@H](C)c1ccccc1)[C@@H](C)c1ccccc1)[C@@H](C)c1ccccc1)[C@@H](C)c1ccccc1 [Peptoid 15-2] | – | – | 34.1 ± 1.1% | – | – | 39.2 µM | > 100 µM | – | – | 6.3 | 3.1 |
| C[C@@H](c1ccccc1)N(CC(=O)N(CCCCN)CC(=O)N(CC(=O)N(CC(N)=O)Cc1ccccc1)Cc1ccccc1)C(=O)CN(CCCCN)C(=O)CN(CCCCN)C(=O)CN(C(=O)CN(C(=O)CN(CCCCN)C(=O)CN(C(=O)CN(C(=O)CNCCCCN)[C@@H](C)c1ccccc1)[C@@H](C)c1ccccc1)[C@@H](C)c1ccccc1)[C@@H](C)c1ccccc1 [Peptoid 45] (H-[Nlys][Nspe][Nspe][Nlys][Nspe][Nspe][Nlys][Nlys][Nspe][Nlys][Nphe][Nphe]-NH2) | – | – | 4.5 ± 0.2% | – | – | >100/>100 μM | >100/>100 μM | >25 | 25 (≈ 44 µg/mL) | – | – |
| C[C@@H](c1ccccc1)N(CC(=O)N(CCCCN)CC(=O)N(CC(=O)N(CC(=O)N(CCCCN)CC(=O)N(CCc1c[nH]c2ccccc12)CC(=O)N(CCc1c[nH]c2ccccc12)CC(N)=O)[C@@H](C)c1ccccc1)[C@@H](C)c1ccccc1)C(=O)CN(CCCCN)C(=O)CN(CCCCN)C(=O)CN(C(=O)CN(C(=O)CNCCCCN)[C@@H](C)c1ccccc1)[C@@H](C)c1ccccc1 [Peptoid 30] (H-[Nlys][Nspe][Nspe][Nlys][Nlys][Nspe][Nlys][Nspe][Nspe][Nlys][Gly(N(CH2)2(3-indolyl))][Gly(N(CH2)2(3-indolyl))]-NH2) | – | – | 8.4 ± 0.5% | – | – | >100/>100 μM | >100/>100 μM | 12.5 (≈ 23.3 µg/mL) | 3.1 (≈ 5.78 µg/mL) | – | – |
| C[C@@H](c1ccccc1)N(CC(=O)N(CCCCN)CC(=O)N(CC(=O)N(CC(=O)N(CCCCN)CC(=O)N(CC(=O)N(CC(=O)N(CCCCN)CC(N)=O)[C@@H](C)c1ccccc1)[C@@H](C)c1ccccc1)[C@@H](C)c1ccccc1)[C@@H](C)c1ccccc1)C(=O)CN(C(=O)CN(CCCCN)C(=O)CN(CCc1c[nH]c2ccccc12)C(=O)CNCCc1c[nH]c2ccccc12)[C@@H](C)c1ccccc1 [Peptoid 37-1] (H-[Gly(N(CH2)2(3-indolyl))][Gly(N(CH2)2(3-indolyl))][Nlys][Nspe][Nspe][Nlys][Nspe][Nspe][Nlys][Nspe][Nspe][Nlys]-NH2) | – | – | 86.6 ± 5.7% | – | – | 14.4 µM | 56.5 µM | – | – | 6.3 | 3.1 |
| C[C@@H](c1ccccc1)N(CC(N)=O)C(=O)CN(C(=O)CN(CCCCN)C(=O)CN(C(=O)CN(C(=O)CN(CCCCN)C(=O)CN(C(=O)CN(C(=O)CN(CCCCN)C(=O)CN(CCc1c[nH]c2ccccc12)C(=O)CN(CCc1c[nH]c2ccccc12)C(=O)CNCCCCN)[C@@H](C)c1ccccc1)[C@@H](C)c1ccccc1)[C@@H](C)c1ccccc1)[C@@H](C)c1ccccc1)[C@@H](C)c1ccccc1 [Peptoid 14-1] | – | – | 75.3 ± 5.0% | – | – | 19.2 µM | 68.2 µM | – | – | 3.1 | 3.1 |
| C[C@@H](c1ccccc1)N(CC(N)=O)C(=O)CN(C(=O)CN(CCCCN)C(=O)CN(CCc1c[nH]c2ccccc12)C(=O)CN(CCc1c[nH]c2ccccc12)C(=O)CN(CCCCN)C(=O)CN(C(=O)CN(C(=O)CN(CCCCN)C(=O)CN(C(=O)CN(C(=O)CNCCCCN)[C@@H](C)c1ccccc1)[C@@H](C)c1ccccc1)[C@@H](C)c1ccccc1)[C@@H](C)c1ccccc1)[C@@H](C)c1ccccc1 [Peptoid 12] | – | – | 87.4 ± 2.4% | – | – | 29.1 µM | 65.2 µM | 6.3 (≈ 12 µg/mL) | 1.6 (≈ 3.04 µg/mL) | – | – |
| C[C@@H](c1ccccc1)N(CC(N)=O)C(=O)CN(C(=O)CN(CCCCN)C(=O)CN(C(=O)CN(C(=O)CN(CCCCN)C(=O)CN(CCc1c[nH]c2ccccc12)C(=O)CN(CCc1c[nH]c2ccccc12)C(=O)CN(CCCCN)C(=O)CN(C(=O)CN(C(=O)CNCCCCN)[C@@H](C)c1ccccc1)[C@@H](C)c1ccccc1)[C@@H](C)c1ccccc1)[C@@H](C)c1ccccc1)[C@@H](C)c1ccccc1 [Peptoid 13] | – | – | 96.8 ± 1.6% | – | – | 20.2 µM | 41.3 µM | 6.3 (≈ 12 µg/mL) | <0.8 | – | – |
